US20180209956A1, “HTS Assay for Identifying Small Molecule Inhibitors of RAD52 and Uses of Identified Small Molecule Inhibitors for Treatment and Prevention of BRCA-Deficient Malignancies” (University of Iowa Research Foundation, priority 2015, published 2018)
Counter-ions that a name gives are not always drawn. Like-named read-outs stand apart in the source and are kept apart here.

Columns and labels:
[1] = target: T1, RAD52-ssDNA interaction (Homo sapiens, UniProt P43351); assay: FRET-based ssDNA binding and wrapping assay (RAD52-Cy3-dT30-Cy5 complex); settings: for IC50: read-out: IC50 (DNA binding); for IC50 range for ssDNA binding and wrapping, in words: summary of Table 1
T1 construct: made in house
T1 sequence (P43351 1-418): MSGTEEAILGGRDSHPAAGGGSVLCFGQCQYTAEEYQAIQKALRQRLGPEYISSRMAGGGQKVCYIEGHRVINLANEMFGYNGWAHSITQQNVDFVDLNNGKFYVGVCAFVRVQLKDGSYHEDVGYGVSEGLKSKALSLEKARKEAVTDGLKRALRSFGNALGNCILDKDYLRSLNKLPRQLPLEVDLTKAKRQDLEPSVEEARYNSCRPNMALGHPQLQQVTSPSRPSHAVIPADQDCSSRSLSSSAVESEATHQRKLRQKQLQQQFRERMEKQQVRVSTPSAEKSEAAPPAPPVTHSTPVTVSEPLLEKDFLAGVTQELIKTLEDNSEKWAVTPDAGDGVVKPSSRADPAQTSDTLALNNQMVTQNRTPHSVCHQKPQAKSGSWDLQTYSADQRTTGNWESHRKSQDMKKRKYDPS
Experimental: We titrated increasing amounts of each compound into a cuvette containing preformed stoichiometric RAD52-Cy3-dT30-Cy5 complexes (1 nM Cy3-dT30-Cy5 and 8 nM RAD52). […] At each concentration of the compound, the FRET signal was adjusted for the change in Cy3 and Cy5 fluorescence in the presence of the compound, but in the absence of protein.
FRET-based DNA binding and annealing assays: FRET-based ssDNA binding, dsDNA binding, and annealing assays were carried out as previously described (Grimme et al., 2010, Grimme and Spies, 2011) using Cary Eclipse spectrofluorimeter (Varian) at 25° C. in buffer containing 30 mM Tris-Acetate pH7.5, 1 mM DTT, and 0.1 mg/mL BSA. Cy3 dye was excited at 530 nm and its emission was monitored at 565 nm. Emission of Cy5 acceptor fluorophore excited through the energy transfer from Cy3 donor is monitored at 660 nm simultaneously with emission of Cy3 dye. Both the excitation and the emission slit widths were set to 10 nm.
All experiments were performed in triplicates, and the data are shown as averages and standard deviations for three independent measurements. To remove possible experimental artifacts associated with chromogenic or fluorogenic compounds, as well as with the compounds that may quench or enhance Cy3 or Cy5 fluorescence, we also performed control titrations whereby we titrated each compound into 1 nM Cy3-dT30-Cy5 in the absence of RAD52. For each compound concentration we subtracted the difference in the FRET signal in the presence and absence of the compound from the respective FRET signal in the presence of RAD52. The FRET signal corrected for the compound fluorescence was calculated using the equation: […]
as previously described (Grimme et al., 2010, Grimme and Spies, 2011) and plotted as a function of compound concentration and fitted to the following inhibition model”
where FRET0 is the initial FRET value of RAD52-ssDNA complex in the absence of the compound and FRETmin is the FRET value at complete inhibition. FRET values were calculated as an average of three or more independent annealing reactions plotted against the concentration of the compound. Inhibition of the RAD52-dsDNA interaction was assayed in a similar experiment, except the stoichiometric complexes containing 1 nM molecules of Cy3-Oligo28-Cy5 duplex DNA and 10 nM RAD52. […] In all experiments, the FRET values for each data point were corrected for the effects of the compounds on the respective substrate in the absence of RAD52.

[2] = target: T2, RAD52-mediated ssDNA annealing (Homo sapiens, UniProt P43351); assay: FRET-based RAD52-mediated ssDNA annealing assay; format: biochemical; settings: Table 1, read-out: IC50 Annealing Extent
T2 construct: made in house
T2 sequence (P43351 1-418): T1 sequence (P43351 1-418)
Excerpt: These assays utilize two complementary single stranded 28-nucleotide-long substrates, which contain either Cy3 (T-28) or Cy5 (P-28) incorporated into the middle of the respective DNA strand. When the substrates are annealed by RAD52, the Cy3 and Cy5 dyes are separated by 3 base pairs and yield a high FRET signal (FIG. 2 Supplement 2). […] The annealing reactions were initiated by mixing two half reactions and observing the change in FRET over time in the presence of varying concentrations of small molecules. An increasing FRET value over time indicates formation of the dsDNA duplex which brings the two dyes in close proximity (FIG. 2 Supplement 2). Fitting the annealing data to a double exponential allowed us to calculate and compare the final extent of annealing at varying concentrations of each compound compared to RAD52 alone. We plotted the final extent of annealing vs the concentration of the compound and calculated an IC50 of annealing inhibition.
Annealing of complementary oligonucleotides by RAD52 was monitored under identical conditions as the binding assays described above. For each assay, the reaction master mixture containing 8 nM RAD52 protein in the presence and absence of the compounds at varying concentrations was prepared at room temperature and divided into two half reactions. Following baseline buffer and protein measurements, 0.5 nM of T-28 ssDNA substrate was added to the reaction cuvette and the signal was allowed to stabilize. The annealing reaction was initiated upon addition of the second half-reaction pre-incubated with 0.5 nM P-28 ssDNA substrate. The fluorescence of Cy3 and Cy5 were measured simultaneously over the reaction time course (500 s). FRETapp values were calculated as an average of three or more independent annealing reactions plotted against time (s). The average FRET values were fitted to a double exponential to calculate the final extent of annealing using Graphpad Prism4 software. The calculated annealing extent was plotted as a function of compound concentration and fitted to the same model as we used to determine IC50 values for the inhibition of DNA annealing.

[3] = Solubility observed during testing; format: physicochemical
[4] = Table 1, ssDNA, 1 nM Cy3-dT30-Cy5, 8 nM RAD52
[5] = Table 2, methods similar to Example 1

| Compound | FRET value at saturation ([1]; Table 1) | IC50 [1, 4] [nM] | IC50 range for ssDNA binding and wrapping, in words [1] | FRET value at saturation ([1]; Table 2) | IC50 [1, 5] [nM] | also measured |
| --- | --- | --- | --- | --- | --- | --- |
| C=C1c2cccc(O)c2C(=O)C2=C(O)[C@]3(O)C(=O)C(C(N)=O)=C(O)[C@@H](N(C)C)[C@@H]3[C@@H](O)[C@H]12 [Compound 3, Methacycline Hydrochloride, reference compound] | 0.47 ± 0.01 | 2000 ± 170 | micro-molar range | – | – | IC50 [2]: 3800 ± 200 nM |
| O=C(O[C@@H]1Cc2c(O)cc(O)cc2O[C@@H]1c1ccc(O)c(O)c1)c1cc(O)c(O)c(O)c1 [Compound 5, (−)-Epicatechin gallate] | 0.41 ± 0.004 | 255 ± 16 | nano-molar range | – | – | IC50 [2]: 20000 ± 700 nM |
| Oc1cc(O)c2c(c1)O[C@H](c1ccc(O)c(O)c1)[C@H](O)C2 [Compound 7, (−)-Epicatechin] | 0.51 ± 0.01 | 1450 ± 110 | micro-molar range | – | – | – |
| NCCc1cc(O)c(O)cc1O [Compound 14, Oxidopamine] | 0.50 ± 0.01 | 779 ± 51 | nano-molar range | – | – | – |
| O=C1c2ccc(O)c(O)c2C(=O)c2c(O)ccc(O)c21 [Compound 15, Quinalizarin] | 0.51 ± 0.01 | 563 ± 40 | nano-molar range | – | – | IC50 [2]: 5600 ± 600 nM |
| COc1cc(N)c(Cl)cc1C(=O)N[C@H]1CCN(CCCOc2ccc(F)cc2)C[C@H]1OC [Compound 16, Cisapride Monohydrate, reference compound] | 0.50 ± 0.01 | – | – | – | – | – |
| CC1(C)C(=O)C=C[C@@]2(C)C1=C(O)C(=O)[C@]1(C)[C@@H]2CC[C@@]2(C)[C@H](c3ccoc3)C[C@H]3O[C@]321 [Compound 17, Cedrelone] | – | > 300000 | high micro-molar range | – | – | – |
| O=c1c(O)c(-c2ccc(O)c(O)c2)oc2c(O)c(O)cc(O)c12 [Compound 19, Gossypetin] | 0.49 ± 0.01 | 913 ± 58 | nano-molar range | – | – | IC50 [2]: 6000 ± 2300 nM |
| Cc1ccc2c(c1)C(=O)CC(O)(C(F)(F)F)O2 (centres unmarked) [Compound R20, 2-hydroxy-6-methyl-2-(trifluoromethyl)-2,3-dihydro-4H-chromen-4-one] | – | – | – | 0.49 ± 0.01 | 938 ± 12 | – |
| O/N=C1/CC(O)(C(F)(F)F)Oc2ccccc21 (centres unmarked) [Compound R21, 2-hydroxy-2-(trifluoromethyl)-2,3-dihydro-4H-chromen-4-one oxime] | – | – | – | 0.483 ± 0.01 | 76000 ± 5570 | – |
| CC1(C)COC(O)(C(F)(F)F)CC1=O (centres unmarked) [Compound R22, 2-hydroxy-5,5-dimethyl-2-(trifluoromethyl)tetrahydro-4H-pyran-one] | – | – | – | 0.49 ± 0.01 | 184000 ± 12000 | – |
| CC(O)CC1(O)C(=O)N(C)c2ccccc21 (centres unmarked) [Compound R23, 3-hydroxy-3-(2-hydroxypropyl)-1-methyl-1,3-dihydro-2H-indol-2-one] | – | – | – | 0.39 ± 0.01 | 84100 ± 1040 | – |
| CC(C)(O)C1Cc2cc3ccc(=O)oc3cc2O1 (centres unmarked) [Compound R24, 2-(1-hydroxy-1methylethyl)-2,3-dihydro-7H-furo[3,2-g]crhomen-7-one] | – | – | – | – | – | IC50 (DNA binding) [1, 5]: No inhibition |
| c1ccc(CSc2nnc3c(n2)OC(c2ccc4c(c2)OCO4)Nc2ccccc2-3)cc1 (centres unmarked) [Compound R25, 6-(1,3-benzodioxol-5-yl)-3-(benzylthio)-6,7-dihydro[1,2,4]triazino[5,6-d][3,1]benzoxazepine] | – | – | – | 0.45 ± 0.01 | 1600 ± 150 | – |
| CCOc1ccc(C2Nc3ccccc3-c3nnc(SCc4ccccc4)nc3O2)cc1 (centres unmarked) [Compound R26, 3-(benzylthio)-6-(4-ethoxyphenyl)-6,7-dihydro[1,24]triazino[5,6-d][3,1]benzoxazepine] | – | – | – | 0.46 ± 0.01 | 1900 ± 500 | – |
| O=c1c2ccccc2nc(CSc2ncnc3[nH]cnc23)n1-c1cccc(C(F)(F)F)c1 [Compound R27, 2-[(9H-purin-6-ylthio)methyl]-3-[3-(trifluoromethyl)phenyl]-4(3H)-qhinazolinone] | – | – | – | – | – | Solubility ([3]; 30 mM Tris-Acetate pH 7.5, 1 mM DTT at 115 μM): Insoluble in 30 mM Tris-Acetate pH 7.5, 1 mM DTT at 115 μM |
| CCOc1cc(C(Nc2cc(C)ccn2)c2ccc3ccc(C)nc3c2O)ccc1OC (centres unmarked) [Compound R28, 7-{(3-ethoxy-4-methyoxyphenyl)[(4-methyl-2-pyridinyl)amino]methyl}-2-methyl-8-quinolinol] | – | – | – | – | – | Solubility ([3]; 30 mM Tris-Acetate pH 7.5, 1 mM DTT at 10 μM): Insoluble in 30 mM Tris-Acetate pH 7.5, 1 mM DTT at 10 μM |
| CCOc1ccccc1NC(=O)c1c(NC(=O)Cc2ccc(OC)cc2)sc2c1CCC2 [Compound R29, N-(2-ethoxyphenyl)-2-{[(4-methoxyphenyl)acetyl]amino)-5,6-dihydro-4H-cyclopenta[b]thiophene-3-carboxamide] | – | – | – | – | – | Solubility ([3]; DMSO at 25 mM): Compound is insoluble in DMSO at 25 mM |
| COc1cc(C2C(C(=O)OCC3CCCO3)=C(C)NC3=C2C(=O)CC(C)(C)C3)ccc1O (centres unmarked) [Compound R30, Tetrahydro-2-furanylmethyl 4-(4-hydroxy-3-methoxyphenyl)-2,7,7-trimethyl-5oxo-1,4,5,6,7,8-hexahydro-3-quinolinecarboxylate] | – | – | – | 0.59 ± 0.01 | 1300 ± 190 | – |
| COc1ccc(C(=O)Nc2ccccc2C(=O)NC(C(=O)Nc2ccccc2)C(C)C)cc1 (centres unmarked) [Compound R32, N-[1-(anilinocarbonyl)-2-methylpropyl]-2-[(4-methoxybenzoyl)amino]benzamide] | – | – | – | 0.45 ± 0.01 | 1250 ± 340 | – |
| COc1cc(/C=N/NC(=O)CCC(C)O)ccc1O (centres unmarked) [Compound R33, 4-hydroxy-N′-(4-hydroxy-3-methoxybenzyliden)pentanohydrazide] | – | – | – | 0.56 ± 0.01 | 849 ± 210 | – |
| Asiatic Acid [Compound 18] | – | > 800000 | high micro-molar range | – | – | IC50 [2]: > 100000 nM |
| Rolitetracycline [Compound ‘4’, reference compound] | 0.56 ± 0.04 | 29000 ± 8200 | mid micro-molar range | – | – | – |
